The source made the active and inactive calls. The calls are words filed in the database; no cut-off is given here.
What was measured:
[1] = biological target: T1, Protoporphyrinogen IX oxidase (Cichorium intybus) (UniProt Q9SPL6); experiment: Inhibition of Tripleurospermum maritimum subsp. inodorum protoporphyrinogen oxidase by post-emergence herbicidal activity assay
T1 sequence (whole entry): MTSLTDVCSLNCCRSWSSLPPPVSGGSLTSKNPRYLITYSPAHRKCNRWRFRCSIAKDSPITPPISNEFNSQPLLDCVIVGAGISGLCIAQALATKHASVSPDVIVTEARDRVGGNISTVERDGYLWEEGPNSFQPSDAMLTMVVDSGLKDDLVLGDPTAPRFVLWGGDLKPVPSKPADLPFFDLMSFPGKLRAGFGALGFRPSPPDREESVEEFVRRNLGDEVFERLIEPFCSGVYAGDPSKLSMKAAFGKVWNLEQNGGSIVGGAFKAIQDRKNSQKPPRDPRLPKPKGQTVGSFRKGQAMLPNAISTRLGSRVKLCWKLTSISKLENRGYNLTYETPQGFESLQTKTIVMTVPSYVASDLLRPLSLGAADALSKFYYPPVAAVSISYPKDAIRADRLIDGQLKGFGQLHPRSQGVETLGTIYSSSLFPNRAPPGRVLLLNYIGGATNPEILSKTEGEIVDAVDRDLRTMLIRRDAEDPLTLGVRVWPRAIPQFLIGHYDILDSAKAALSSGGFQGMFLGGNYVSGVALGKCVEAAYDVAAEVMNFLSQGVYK

Triticum aestivum [2] = experiment: Phytotoxicity in Triticum aestivum (wheat) assessed as injury at 100 g/ha pre emergence application measured after 21 days after treatment; assay type: organism-based; details: in vivo, other, 504 h
Galium aparine [3] = experiment: Herbicidal activity against Galium aparine assessed as killing at 12 g/ha measured after 21 days after treatment by time-course analysis; assay type: functional
Triticum aestivum [4] = experiment: Phytotoxicity in Triticum aestivum (wheat) assessed as injury at 30 g/ha pre emergence application measured after 21 days after treatment; assay type: organism-based; details: in vivo, other, 504 h
Alopecurus myosuroides [5] = experiment: Herbicidal activity against Alopecurus myosuroides assessed as killing at 0.3 g/ha post emergence application measured after 21 days after treatment; assay type: functional, organism-based
Alopecurus myosuroides [6] = experiment: Herbicidal activity against Alopecurus myosuroides assessed as killing at 100 g/ha post emergence application measured after 21 days after treatment; assay type: functional, organism-based
Veronica hederifolia [7] = experiment: Herbicidal activity against Veronica hederaefolia assessed as killing at 10 g/ha pre emergence application measured after 21 days after treatment; assay type: functional
Galium aparine [8] = experiment: Herbicidal activity against Galium aparine assessed as killing at 1 g/ha post emergence application measured after 21 days after treatment; assay type: functional
Veronica hederifolia [9] = experiment: Herbicidal activity against Veronica hederaefolia assessed as killing at 30 g/ha post emergence application measured after 21 days after treatment; assay type: functional
Stellaria media [10] = experiment: Herbicidal activity against Stellaria media assessed as killing at 3 g/ha post emergence application measured after 21 days after treatment; assay type: functional
Galium aparine [11] = experiment: Herbicidal activity against Galium aparine assessed as killing at 300 g/ha post emergence application measured after 21 days after treatment; assay type: functional
Hordeum vulgare [12] = experiment: Phytotoxicity in Hordeum vulgare (barley) assessed as injury at 300 g/ha pre emergence application measured after 21 days after treatment; assay type: organism-based; details: in vivo, other, 504 h
Hordeum vulgare [13] = experiment: Phytotoxicity in Hordeum vulgare (barley) assessed as injury at 3 g/ha post emergence application measured after 21 days after treatment; assay type: organism-based; details: in vivo, other, 504 h
Avena fatua = experiment: Herbicidal activity against Avena fatua assessed as killing at 3 g/ha post emergence application measured after 21 days after treatment; assay type: functional
[14] = biological target: T2, Protoporphyrinogen oxidase 2 (Spinacia oleracea) (UniProt Q94IG7); experiment: Inhibition of Stellaria media protoporphyinogen oxidase assessed as herbicidal activity at 0.3 g/ha measured after 2 days after treatment under greenhouse by time-course analysis; set-up: scale not given: the % may be the effect or the level left
T2 sequence (whole entry): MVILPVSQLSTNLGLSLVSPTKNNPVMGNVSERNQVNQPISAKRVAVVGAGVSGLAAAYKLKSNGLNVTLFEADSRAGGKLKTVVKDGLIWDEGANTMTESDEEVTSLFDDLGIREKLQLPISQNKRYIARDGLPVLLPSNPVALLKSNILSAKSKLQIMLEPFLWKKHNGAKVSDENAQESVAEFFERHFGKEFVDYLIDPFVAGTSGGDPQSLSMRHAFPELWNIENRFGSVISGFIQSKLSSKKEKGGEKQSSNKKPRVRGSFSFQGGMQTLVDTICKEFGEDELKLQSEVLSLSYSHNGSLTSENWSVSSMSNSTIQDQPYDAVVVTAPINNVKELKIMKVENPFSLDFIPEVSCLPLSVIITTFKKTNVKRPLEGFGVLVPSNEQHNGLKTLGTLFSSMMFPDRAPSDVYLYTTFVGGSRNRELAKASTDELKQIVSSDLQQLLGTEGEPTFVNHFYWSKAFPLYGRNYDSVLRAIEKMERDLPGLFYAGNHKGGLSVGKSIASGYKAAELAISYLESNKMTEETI

Stellaria media [15] = experiment: Herbicidal activity against Stellaria media assessed as killing at 0.3 g/ha post emergence application measured after 21 days after treatment; assay type: functional
Galium aparine [16] = experiment: Herbicidal activity against Galium aparine assessed as killing at 3 g/ha post emergence application measured after 21 days after treatment; assay type: functional

CCOC(=O)COc1cc(-c2nn(C)c(OC(F)F)c2Cl)c(F)cc1Cl [PYRAFLUFEN-ETHYL]
ED90 [1]: 0.3 gAi/ha
Activity (Triticum aestivum [2]): 1%
Activity (Galium aparine [3]): >90%
Activity (Triticum aestivum [4]): Non-toxic
Activity (Alopecurus myosuroides [5]): inactive
Activity (Alopecurus myosuroides [6]): inactive
Activity (Veronica hederifolia [7]): 1%
Activity (Galium aparine [8]): 80%
Activity (Veronica hederifolia [9]): 11%
Activity (Stellaria media [10]): 100%
Activity (Galium aparine [11]): 50%
Activity (Hordeum vulgare [12]): 21%
Activity (Hordeum vulgare [13]): 1%
Activity (Avena fatua): 1%
Activity [14]: 90%
Activity (Stellaria media [15]): 90%
Activity (Galium aparine [16]): 100%
